Measured values reported in PubChem BioAssay (NCI).
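These data come from cells grown in 96-well plates and exposed to compound for 48 hours at five concentrations. TGI marks complete inhibition of growth.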

Columns and labels:
Test in all cases: growth of human tumour cells (NCI), 48 h
UACC-257 melanoma = test system: UACC-257 melanoma
SF-539 CNS = test system: SF-539 CNS
HOP-92 NSCLC = test system: HOP-92 NSCLC
COLO 205 colon = test system: COLO 205 colon
IGROV1 ovarian = test system: IGROV1 ovarian
HOP-18 NSCLC = test system: HOP-18 NSCLC
OVCAR-5 ovarian = test system: OVCAR-5 ovarian
MOLT-4 leukemia = test system: MOLT-4 leukemia
HL-60(TB) leukemia = test system: HL-60(TB) leukemia
SK-MEL-5 melanoma = test system: SK-MEL-5 melanoma
UACC-62 melanoma = test system: UACC-62 melanoma
HCT-15 colon = test system: HCT-15 colon
SNB-19 CNS = test system: SNB-19 CNS
A498 renal = test system: A498 renal
NCI-H226 lung = test system: NCI-H226 lung
SW-620 colon = test system: SW-620 colon
DU-145 prostate = test system: DU-145 prostate
SR leukemia = test system: SR leukemia
ACHN renal = test system: ACHN renal
TK-10 renal = test system: TK-10 renal

Row | SMILES | TGI (UACC-257 melanoma) | TGI (SF-539 CNS) | TGI (HOP-92 NSCLC) | TGI (COLO 205 colon) | TGI (IGROV1 ovarian) | TGI (HOP-18 NSCLC) | TGI (OVCAR-5 ovarian) | TGI (MOLT-4 leukemia) | TGI (HL-60(TB) leukemia) | TGI (SK-MEL-5 melanoma) | TGI (UACC-62 melanoma) | TGI (HCT-15 colon) | TGI (SNB-19 CNS) | TGI (A498 renal) | TGI (NCI-H226 lung) | TGI (SW-620 colon) | TGI (DU-145 prostate) | TGI (SR leukemia) | TGI (ACHN renal) | TGI (TK-10 renal)
1 | O=P1(Oc2ccc(Cl)cc2Cl)Oc2ccc3ccccc3c2-c2c(ccc3ccccc23)O1 | > 100 µM | 43 µM | 50.1 µM | > 100 µM | > 71.8 µM | > 100 µM | > 100 µM | 55.6 µM | 53.8 µM | > 100 µM | 70.4 µM | > 77.1 µM | 82.8 µM | > 95.4 µM | 59.8 µM | > 100 µM | – | – | – | –
2 | CC(O)c1cc2c(s1)C(=O)c1ccsc1C2=O (stereo unspecified) | 0.0688 µM | 0.158 µM | 0.967 µM | 3.23 µM | 1.25 µM | – | 0.3 µM | 0.594 µM | 0.0791 µM | 0.0198 µM | 0.0733 µM | 0.118 µM | 0.553 µM | 2.95 µM | 1.32 µM | 0.511 µM | 0.0947 µM | 0.392 µM | 0.267 µM | 1.32 µM
3 | CC1C/C(=C\c2ccc(OC(=O)C(C)(C)C)cc2)C(=O)/C(=C/c2ccc(OC(=O)C(C)(C)C)cc2)C1 (stereo unspecified) | > 100 µM | > 100 µM | > 100 µM | > 100 µM | 63.3 µM | – | > 100 µM | 37.7 µM | 62.3 µM | > 100 µM | > 100 µM | > 100 µM | > 100 µM | > 100 µM | 71 µM | > 100 µM | > 100 µM | > 100 µM | > 100 µM | > 100 µM
4 | COc1cc(S(=O)(=O)Nc2nc(-c3ccc(N4C(=O)/C(=C/C=C/c5ccccc5)N=C4c4ccccc4)cc3)cs2)ccc1Cl | > 100 µM | > 100 µM | > 100 µM | > 100 µM | > 100 µM | – | > 100 µM | > 100 µM | > 100 µM | > 100 µM | > 100 µM | > 100 µM | > 100 µM | > 100 µM | > 100 µM | > 100 µM | > 100 µM | > 100 µM | > 100 µM | > 100 µM
5 | CCOC(=O)CCC(NC(=O)c1ccc(Oc2nc3ccccc3nc2-c2ccccc2)cc1)C(=O)OCC (stereo unspecified) | > 100 µM | 15 µM | 13.4 µM | > 100 µM | > 100 µM | – | > 100 µM | > 100 µM | > 100 µM | > 100 µM | > 100 µM | > 100 µM | > 77 µM | > 100 µM | 33 µM | > 100 µM | > 100 µM | > 100 µM | > 66.9 µM | > 56.8 µM
6 | COc1cc2cc3c4cc(OC)c(OC)cc4cc[n+]3cc2cc1OC | > 100 µM | > 100 µM | > 100 µM | > 100 µM | > 100 µM | > 100 µM | > 100 µM | > 96.8 µM | – | > 100 µM | > 100 µM | > 100 µM | > 100 µM | > 100 µM | > 100 µM | > 100 µM | – | – | – | –
7 | COc1ccc(N2C(=O)[C@H]3[C@H]4CC(C(C)(C)C)CC[C@H]4c4c(n(C)c5ccccc45)[C@H]3C2=O)cc1 (stereo partly specified) | > 100 µM | > 46.4 µM | > 100 µM | > 100 µM | > 100 µM | > 100 µM | > 100 µM | > 100 µM | > 100 µM | > 100 µM | > 100 µM | > 56.2 µM | > 100 µM | > 46.4 µM | > 100 µM | > 100 µM | > 100 µM | > 100 µM | > 100 µM | > 100 µM
8 | CCCCN1CN2C(=O)C(C(=O)OCC)C(=O)c3sc4nc(SC)nc1c4c32 (stereo unspecified) | 35.8 µM | 33.8 µM | 30.5 µM | 35.5 µM | 33.5 µM | – | 32.6 µM | 66.3 µM | > 100 µM | 24.8 µM | 31.5 µM | 38 µM | 34.8 µM | 16.8 µM | 34 µM | 35.6 µM | 35.4 µM | 67 µM | 30.7 µM | 28.4 µM
9 | COc1ccc(C2SCC(=O)N2NC(=O)c2ccncc2)cc1F (stereo unspecified) | > 100 µM | – | > 100 µM | > 100 µM | – | > 100 µM | > 100 µM | – | > 100 µM | > 100 µM | – | > 100 µM | > 100 µM | > 100 µM | > 100 µM | > 100 µM | – | > 100 µM | > 100 µM | > 100 µM
10 | CC1CN=C(Nc2ccccc2)S1 (stereo unspecified) | > 100 µM | > 100 µM | > 100 µM | > 100 µM | > 100 µM | – | > 100 µM | > 100 µM | > 100 µM | > 100 µM | > 100 µM | > 100 µM | > 100 µM | > 100 µM | > 100 µM | > 100 µM | > 100 µM | > 100 µM | > 100 µM | > 100 µM
11 | CC[C@@H]1C(=O)OC[C@@H]1Cc1cncn1C | > 100 µM | > 100 µM | > 100 µM | > 100 µM | > 100 µM | – | > 100 µM | > 100 µM | > 100 µM | > 100 µM | > 100 µM | > 100 µM | > 100 µM | > 100 µM | > 100 µM | > 100 µM | > 100 µM | > 100 µM | > 100 µM | > 100 µM
12 | CC1(C)CCc2c(c(N=Nc3ccc(S(N)(=O)=O)cc3)c3ccccc3c2O)O1 | 21.3 µM | 22.2 µM | 37.5 µM | 44.9 µM | 40.1 µM | – | 38.2 µM | 82.7 µM | 49.9 µM | 8.1 µM | 34.3 µM | 43.9 µM | 39 µM | 7.28 µM | 57.5 µM | > 100 µM | 25 µM | 58.3 µM | 56.7 µM | 38 µM
13 | Oc1cc2c3c(c1)CCCN3CCC2 | > 10 µM | > 10 µM | > 10 µM | > 10 µM | > 10 µM | – | > 10 µM | > 10 µM | > 10 µM | > 10 µM | > 10 µM | > 10 µM | > 10 µM | > 10 µM | > 10 µM | > 10 µM | > 10 µM | > 10 µM | > 10 µM | > 10 µM
14 | COc1ccc(-c2c3c(cc4cc5c(cc24)OCO5)C(=O)OC3)cc1OC | 5.05 µM | 24.6 µM | > 23.4 µM | 11.4 µM | > 100 µM | – | > 100 µM | 20.4 µM | > 31.8 µM | 0.68 µM | 1.84 µM | 18.3 µM | 52 µM | > 49.6 µM | 12.4 µM | 11.7 µM | > 100 µM | 1.7 µM | > 100 µM | > 100 µM
